Measurements published in ChEMBL document CHEMBL1201862, “PubChem BioAssay data set” (2004).
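Test compounds were applied to cells in 96-well plates for 48 hours at 5 doses. The concentration for 50% growth inhibition is given as GI50.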 Activity calls are given as the source filed them. Rule as the data show it: active = GI50 up to about 1.1 µM and inactive = higher.

Legend:
Assay in all cases: DTP human tumour cell line panel, 48 h
UACC-62 = test system: UACC-62
Malme-3M = test system: Malme-3M
HCC 2998 = test system: HCC 2998
KM-20L2 = test system: KM-20L2
HCT-15 = test system: HCT-15
HL-60 = test system: HL-60
LXFL 529 = test system: LXFL 529
SK-OV-3 = test system: SK-OV-3
LOX IMVI = test system: LOX IMVI
MOLT-4 = test system: MOLT-4
HOP-62 = test system: HOP-62
CAKI-1 = test system: CAKI-1
CCRF-CEM = test system: CCRF-CEM
A498 = test system: A498
OVCAR-3 = test system: OVCAR-3
HCT-116 = test system: HCT-116
SF-539 = test system: SF-539
OVCAR-4 = test system: OVCAR-4
NCI/ADR-RES = test system: NCI/ADR-RES
IGROV-1 = test system: IGROV-1
SF-295 = test system: SF-295
K562 = test system: K562
SR = test system: SR
ACHN = test system: ACHN
MDA-MB-231 = test system: MDA-MB-231
DU-145 = test system: DU-145
OVCAR-8 = test system: OVCAR-8
PC-3 = test system: PC-3
SF-268 = test system: SF-268
NCI-H522 = test system: NCI-H522
RPMI-8226 = test system: RPMI-8226
SK-MEL-28 = test system: SK-MEL-28
NCI-H226 = test system: NCI-H226
DMS-114 = test system: DMS-114
SNB-75 = test system: SNB-75
786-0 = test system: 786-0
RXF 393 = test system: RXF 393
MDA-MB-435 = test system: MDA-MB-435
A549 = test system: A549
SW-620 = test system: SW-620
DLD-1 = test system: DLD-1
SN12C = test system: SN12C
MCF7 = test system: MCF7
SK-MEL-5 = test system: SK-MEL-5
COLO 205 = test system: COLO 205
NCI-H460 = test system: NCI-H460
M14 = test system: M14
NCI-H23 = test system: NCI-H23
KM12 = test system: KM12
OVCAR-5 = test system: OVCAR-5
SNB-19 = test system: SNB-19
UO-31 = test system: UO-31
UACC-257 = test system: UACC-257
U-251 = test system: U-251
SNB-78 = test system: SNB-78
HT-29 = test system: HT-29
MDA-N = test system: MDA-N
HOP-92 = test system: HOP-92
M19-MEL = test system: M19-MEL
SK-MEL-2 = test system: SK-MEL-2
EKVX = test system: EKVX
TK-10 = test system: TK-10
DMS-273 = test system: DMS-273

Q: What does the source list for `CC[C@]12C=CCN3CCC4(c5cc([C@@]6(C(=O)OC)CC7CN(CCc8c6[nH]c6ccccc86)C[C@@H]6CCC[C@H]76)c(OC)cc5N(C)C4[C@](O)(C(=O)OC)C1OC(C)=O)C32` (stereo partly drawn)?
A: GI50 (UACC-62): 72.8 nM (active); GI50 (Malme-3M): 104 nM (active); GI50 (HCC 2998): 290 nM (active); GI50 (KM-20L2): 126 nM (active); GI50 (HCT-15): 443 nM; GI50 (HL-60): 58.5 nM (active); GI50 (LXFL 529): 257 nM (active); GI50 (SK-OV-3): 135 nM (active); GI50 (LOX IMVI): 141 nM (active); GI50 (MOLT-4): 155 nM (active); GI50 (HOP-62): 106 nM (active); GI50 (CAKI-1): 962 nM (active); GI50 (CCRF-CEM): 122 nM (active); GI50 (A498): 251 nM (active); GI50 (OVCAR-3): 61 nM (active); GI50 (HCT-116): 108 nM (active); GI50 (SF-539): 110 nM (active); GI50 (OVCAR-4): 792 nM (active); GI50 (NCI/ADR-RES): 1150 nM (inactive); GI50 (IGROV-1): 218 nM (active); GI50 (SF-295): 98.6 nM (active); GI50 (K562): 51.3 nM (active); GI50 (SR): 52.8 nM (active); GI50 (ACHN): 807 nM (active); GI50 (MDA-MB-231): 76.2 nM (active); GI50 (DU-145): 16.5 nM (active); GI50 (OVCAR-8): 185 nM (active); GI50 (PC-3): 33.6 nM (active); GI50 (SF-268): 127 nM (active); GI50 (NCI-H522): 18.8 nM (active); GI50 (RPMI-8226): 141 nM (active); GI50 (SK-MEL-28): 168 nM (active); GI50 (NCI-H226): 201 nM (active); GI50 (DMS-114): 225 nM (active); GI50 (SNB-75): 62.1 nM (active); GI50 (786-0): 316 nM (active); GI50 (RXF 393): 210 nM (active); GI50 (MDA-MB-435): 3.18 nM (active); GI50 (A549): 231 nM (active); GI50 (SW-620): 122 nM (active); GI50 (DLD-1): 494 nM (active); GI50 (SN12C): 423 nM (active); GI50 (MCF7): 12.7 nM (active); GI50 (SK-MEL-5): 32.4 nM (active); GI50 (COLO 205): 83 nM (active); GI50 (NCI-H460): 142 nM (active); GI50 (M14): 157 nM (active); GI50 (NCI-H23): 116 nM (active); GI50 (KM12): 71.3 nM (active); GI50 (OVCAR-5): 741 nM (active); GI50 (SNB-19): 121 nM (active); GI50 (UO-31): 3550 nM (inactive); GI50 (UACC-257): 167 nM (active); GI50 (U-251): 106 nM (active); GI50 (SNB-78): 237 nM (active); GI50 (HT-29): 103 nM (active); GI50 (MDA-N): 3.63 nM (active); GI50 (HOP-92): 526 nM (active); GI50 (M19-MEL): 267 nM (active); GI50 (SK-MEL-2): 179 nM (active); GI50 (EKVX): 968 nM (active)

Q: Which results are given for `NCCCSCC(=O)O`?
A: GI50 (UACC-62): > 100000 nM (inactive); GI50 (Malme-3M): > 100000 nM (inactive); GI50 (HCC 2998): > 100000 nM (inactive); GI50 (KM-20L2): > 100000 nM (inactive); GI50 (HCT-15): > 100000 nM; GI50 (LXFL 529): > 100000 nM (inactive); GI50 (SK-OV-3): > 100000 nM (inactive); GI50 (MOLT-4): > 100000 nM (inactive); GI50 (CAKI-1): > 100000 nM (inactive); GI50 (OVCAR-3): > 100000 nM (inactive); GI50 (HCT-116): > 100000 nM (inactive); GI50 (SF-539): > 100000 nM (inactive); GI50 (OVCAR-4): > 100000 nM (inactive); GI50 (IGROV-1): > 100000 nM (inactive); GI50 (SF-295): > 100000 nM (inactive); GI50 (K562): > 100000 nM (inactive); GI50 (TK-10): > 100000 nM (inactive); GI50 (ACHN): > 100000 nM (inactive); GI50 (OVCAR-8): > 100000 nM (inactive); GI50 (SF-268): > 100000 nM (inactive); GI50 (NCI-H522): > 100000 nM (inactive); GI50 (RPMI-8226): > 100000 nM (inactive); GI50 (SK-MEL-28): > 100000 nM (inactive); GI50 (NCI-H226): > 100000 nM (inactive); GI50 (DMS-114): > 100000 nM (inactive); GI50 (SNB-75): > 100000 nM (inactive); GI50 (786-0): > 100000 nM (inactive); GI50 (RXF 393): > 100000 nM (inactive); GI50 (A549): > 100000 nM (inactive); GI50 (SW-620): > 100000 nM (inactive); GI50 (SN12C): > 100000 nM (inactive); GI50 (SK-MEL-5): > 100000 nM (inactive); GI50 (COLO 205): > 100000 nM (inactive); GI50 (NCI-H23): > 100000 nM (inactive); GI50 (KM12): > 100000 nM (inactive); GI50 (OVCAR-5): > 100000 nM (inactive); GI50 (SNB-19): > 100000 nM (inactive); GI50 (UO-31): > 100000 nM (inactive); GI50 (UACC-257): > 100000 nM (inactive); GI50 (DMS-273): > 100000 nM (inactive); GI50 (U-251): > 100000 nM (inactive); GI50 (SNB-78): > 100000 nM (inactive); GI50 (HT-29): > 100000 nM (inactive); GI50 (HOP-92): > 100000 nM (inactive); GI50 (M19-MEL): > 100000 nM (inactive); GI50 (SK-MEL-2): > 100000 nM (inactive); GI50 (EKVX): > 100000 nM (inactive)
